These results are taken from patent publication US20230201217A1 (priority 2019, published 2023).

Data set [1] deals with polychromatic erythrocytes in mouse bone marrow. The experiment in a line: Mouse bone marrow in vivo micronucleus assay. To be noted: GLP, 50, 75, 120 mg/kg/day for 3 days. The protocol: Treatment resulted and clinical signs of lethargy and piloerection at doses of 200-400 mg/kg and in mortality of male and female ICR mice at doses of 300 and 400 mg/kg. The highest non-lethal dose was 250 mg/kg.
These doses were based upon prior toxicology data indicating higher doses were associated with mortality in this species. […] A positive control group received a single oral dose of 60 mg/kg cyclophosphamide on Day 2, the day prior to the scheduled euthanasia. Each group consisted of 6 males. Males only were used as no significant differences in response related to gender were expected based upon prior toxicology and toxicokinetic data. All animals were euthanized on Day 3, the day following the final dose and discarded following bone marrow collection.
All animals were observed twice daily for mortality and moribundity. Bone marrow collection for micronucleus evaluation was performed for 5 of the 6 animals in each group at the scheduled euthanasia (Day 3). All animals were discarded without necropsy. Bone marrow smears were prepared, and the coded slides were counted for polychromatic, normochromatic, and micronucleated polychromatic erythrocytes following the final bone marrow sample collection on Day 3.

The subject of the next data set is Sprague Dawley rats. The data set can be described thus: Modified Irwin test, pilot dose finding study, female rats. It is filed as in vivo, rat. Particulars: single oral dose 30-800 mg/kg. The protocol: Under the conditions of this study, the no-observed-effect level (NOEL) and no-observed-adverse-effect level (NOAEL) were considered to be 90 mg/kg and 400 mg/kg, respectively.

The subject of another data set is cynomolgus monkeys. The experiment in a line: 14-day nasogastric gavage GLP toxicity study in cynomolgus monkeys. It is filed as in vivo, cynomolgus monkey. To be noted: 14 days. The text has this:
Assessments of neurobehavioral effects and general toxicity were based on mortality, functional observational battery (FOB) evaluations, clinical observations, body weight, and body temperature; ophthalmoscopic, electrocardiographic examinations; and anatomic and clinical pathology. The anatomical pathology evaluations included histopathology of a full list of tissues from all animals and a comprehensive evaluation of the central nervous system (including selected peripheral nerves) utilizing whole body perfusion and special stains. Bone marrow smears from all animals were evaluated microscopically. Complete differentials and myeloid-erythroid (ME) ratios were performed. Toxicokinetic assessment was conducted for the test article and metabolites.

For a further data set, the target named is CYP2C19 (Homo sapiens, UniProt P33261). Particulars: recombinant enzyme.
For a further data set, the target named is CYP2C9 (Homo sapiens, UniProt P11712). Particulars: recombinant enzyme.
A short description of data set [2]: Toxicokinetics, 14-day oral gavage study in CD-1 mice. The format is in vivo, mouse. To be noted: after 14 days of 25 mg/kg 18-MC HCl. As to the method: The relative metabolite concentrations were determined from plasma samples obtained on the last day of dosing in the 25 mg/kg/day group of animals using a UPLC/MS/MS method. Major metabolites were identified as M2 and M4, followed by M8 and M9. The parent 18-MC exposure was less than 1% of the total drug related material. No significant sex differences were observed.
All test article-treated animals underwent up-titration of dosage levels prior to reaching the maximum daily dose, which was administered for 14 consecutive days. […] The dose volume was 10 mL/kg for all groups. Groups 1 and 4 each consisted of 25 animals/sex and Groups 2-3 each consisted of 20 animals for each sex. Following 14 days of dose administration, 15 mice/sex/toxicology group were euthanized; the remaining 5, (10 for the control and high dose group) mice/sex/toxicology group were euthanized following a 14-day nondosing (recovery) period. Following the final blood collection (study day 13), all toxicokinetic animals (from a satellite group of 18 animals/sex/dose level) were euthanized.

Data set [3] relates to animal substance use models. To be noted: i.p.; cited from earlier work.

SMILES strings stand for the structures.

Sequence of CYP2C19 (P33261 whole entry): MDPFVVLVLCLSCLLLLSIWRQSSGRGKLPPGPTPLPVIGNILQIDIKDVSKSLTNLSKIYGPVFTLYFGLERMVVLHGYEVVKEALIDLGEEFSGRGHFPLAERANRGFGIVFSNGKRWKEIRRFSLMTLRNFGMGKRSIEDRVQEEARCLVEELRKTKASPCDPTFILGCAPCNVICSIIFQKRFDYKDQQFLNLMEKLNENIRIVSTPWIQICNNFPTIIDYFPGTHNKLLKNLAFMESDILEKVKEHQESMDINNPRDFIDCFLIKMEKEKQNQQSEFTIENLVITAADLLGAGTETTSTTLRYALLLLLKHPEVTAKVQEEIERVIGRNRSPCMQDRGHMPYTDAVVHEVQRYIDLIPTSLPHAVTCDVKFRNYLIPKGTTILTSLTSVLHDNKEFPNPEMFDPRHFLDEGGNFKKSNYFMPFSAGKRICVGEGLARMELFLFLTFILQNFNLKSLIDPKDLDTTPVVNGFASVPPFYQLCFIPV
Sequence of CYP2C9 (P11712 whole entry): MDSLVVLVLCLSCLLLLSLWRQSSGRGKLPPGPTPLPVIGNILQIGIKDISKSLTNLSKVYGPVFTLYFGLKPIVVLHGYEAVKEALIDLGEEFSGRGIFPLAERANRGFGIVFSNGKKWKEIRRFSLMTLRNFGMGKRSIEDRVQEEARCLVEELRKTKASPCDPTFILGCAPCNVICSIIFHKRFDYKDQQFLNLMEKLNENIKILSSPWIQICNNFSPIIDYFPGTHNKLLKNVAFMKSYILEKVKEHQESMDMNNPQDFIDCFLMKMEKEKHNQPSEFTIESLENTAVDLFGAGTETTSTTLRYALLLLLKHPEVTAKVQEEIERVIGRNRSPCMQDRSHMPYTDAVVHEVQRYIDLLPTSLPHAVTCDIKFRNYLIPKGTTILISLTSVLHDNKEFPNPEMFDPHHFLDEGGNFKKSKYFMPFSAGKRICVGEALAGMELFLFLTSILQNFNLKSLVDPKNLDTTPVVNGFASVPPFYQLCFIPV
Description for CYP2C19: (§1) Control incubations were performed for each assay with appropriate positive inhibitory controls.
Description for CYP2C9: as §1

By NOAEL is commonly meant the highest dose or exposure tested at which no adverse effect was seen. In general, IC50 refers to the concentration that gives 50% inhibition. Usually AUC stands for the area under the concentration-time curve, a measure of exposure. A low value points to low exposure. Usually Cmax stands for the maximum level reached in the sampled fluid or tissue. `COCC[C@H]1CC2CN3CCc4c([nH]c5ccccc45)[C@](C(=O)OC)(C2)[C@H]13` [18-MC, 18-methoxycoronaridine]: the “bone marrow cytotoxicity and clastogenic activity” value in data set [1] is listed as “negative response”. For the same molecule, in the data set on Sprague Dawley rats, the “no-observed-adverse-effect level (NOAEL)” value came out at 400 mg/kg and the “no-observed-effect level (NOEL)” value came out at 90 mg/kg. For the same molecule, in the data set on cynomolgus monkeys, the no observed adverse effect level (NOAEL) is recorded as 50 mg/kg/day. The IC50 at CYP2C19 was determined as 4.9 µM. Further, the IC50 at CYP2C9 worked out at 4.1 µM. In data set [2], this molecule returned an area under the curve (AUC) of 251 ng·h/mL and a Cmax of 105 ng/mL. In data set [3], the “lowest dosage that significantly reduces drug self-administration” value was at least 10 mg/kg.
